These results are taken from US20230002344A1, “NOVEL BENZOTHIOPHENE DERIVATIVES AND USE THEREOF FOR STIMULATING MITOCHONDRIAL TURNOVER” (NIBN, The National Institute For Biotechnology In The Negev …, priority 2019, published 2023).

Entries after “also recorded” stand apart in the source; their conditions may differ.

Common to all, as to assay type: cell-based
The subject of data set [1] is INS1 cells. As to the kind of experiment: Mitochondrial mass by Mitotracker green staining. Conditions: 18 h; SPB08007 25 μM, MWP00839 11.5 μM, Urolithin A 25 μM. Here is the method:
(§1) The Z-score depicts the standard deviation from the neutral control (DMSO). In FIG. 3C: Mitochondrial mass in INS1 cells treated for 18 hours with either DMSO (control), Urolithin A (25 μM), SPB08007 (“SBP”) (25 μM) or MWP00839 (“MWP”) (11.5 μM) and then stained with Mitotracker green (200 nM). In FIG. 3D: SPB08007 and MWP00839 increase the number of mitochondria inside autolysosomes. INS1 cells expressing mCherry-GFP were exposed to SPB08007, MWP00839, and DMSO for 8 hours and then subjected to confocal microscopy. The area of red fluorescence in the taken images was determined. N=3+/−SEM pANOVA<0.05. FIG. 3E provides representative images. […] FIG. 3F provides the Western blot against LC3 in INS1 cells treated with the compounds in presence or absence of bafilomycin (+b) for the last 2 hours.
Mitotracker Green Fluorescence, Anion Radical Superoxide and Mitochondrial Membrane Potential. INS1 cells were seeded into wells of a 96-wells glass bottom cell culture plate (CELLSTAR) at a density of 2*10^4 cells/well. To assess mitochondrial clearance, a pulse-chase experiment was performed. […] Results are expressed as the percentage of MTG fluorescence relative to MTG fluorescence of the “time 0” control. […] Integrated fluorescence of each field was analyzed in Image J after background subtraction and threshold (IsoData) application. Twenty-four fields of each condition were analyzed in each experiment.

Data set [2] concerns INS1 cells. Kind of data set: Western blot against LC3 (autophagic flux). Here is the method: as §1
(In general: A western blot detects proteins with antibodies after separation by electrophoresis.)

Data set [3] relates to INS1 cells. As to the kind of experiment: Cell viability (XTT). Conditions: 25 μM, 24 hours exposure. As to the method: Cell Viability. Viability was measured using an XTT kit (Biological Industries), as recommended by the manufacturer. 30,000 cells were seeded in a flat 96-well plate. To each well 100 μl of growth media was added. The cells were incubated in a CO2 incubator at 37° C. In most cases, cells can be used to assay proliferation after 24-96 hours. Each test included a blank containing complete medium without cells as a background control. To prepare a reaction solution sufficient for one plate (96 wells), 0.1 ml activation solution was added to 5 ml XTT reagent. 50 μl of the reaction solution was added to each well and the plate was incubated in an incubator for 2-24 hours. Following the incubation, the plate was shacked gently to evenly distribute the dye in the wells and the absorbance of the samples was measured against a background control with a spectrophotometer (ELISA reader) at a wavelength of 480 nm. To determine non-specific readings we used a wavelength of 650 nm which we subtracted from the 480 nm measurement. The average absorbance of the blank control wells was finally subtracted from that of the other wells.
For all the experiment concerning cell viability, a kit of XTT reagent was used (Biological Industries).
(In general: Formazan colour is commonly taken as a measure of viable cells.)

A further data set has as its system mouse islets. As to the kind of experiment: Glucose stimulation insulin secretion assay. Conditions: 25 uM 24 h pretreatment. As to the method: FIG. 12A show mouse islets were pre-incubated with SPB08007 (25 uM) or DMSO (0.1%) for 24 h. Islets were adapted to KRB media containing glucose 2 mM for 1 h, followed by media exchange containing glucose 2 mM (basal) or 12 mM (stimulated). After 1 h, Insulin released in the media was measured by ELISA. […] N=3. *p<0.05 vs. DMSO basal. ***p<0.001 vs. DMSO.
Islet isolation. Islets were isolated from DBA/2 mice. Briefly, pancreata of anesthetized mice were infused with collagenase (1 mg/ml, type XI, Sigma-Aldrich, Rehovot, Israel), excised, and incubated for 30 min at 37° C. The digested tissue was vortexed, filtered and washed in HBSS (Biological Industries) containing 0.5% BSA (Sigma). The pellet was resuspended in RPMI medium 1640 supplemented with 10% FCS, 50 units/ml penicillin, and 50 μg/ml streptomycin (all from Biological Industries). Islets were collected on a 100-μm cell strainer (BD, Falcon) and hand-picked using stereoscope (Zeiss, Oberkochen, Germany)
Glucose stimulation insulin secretion assay. After 24-hour pretreatment with SPB08007, 25 uM, islets were washed twice with PBS (Biological Industries, Bet-Haemek, Israel). For basal insulin secretion, the islets were incubated with Krebs-Ringer Bicarbonate (KRB) buffer supplemented with 0.5% BSA and 2 mM glucose for 30 min at 37 deg. C and 5% CO2. For stimulated insulin secretion, the buffer was replaced with KRB buffer supplemented with 0.5% BSA and 16 mM glucose and the islets were incubated for additional 60 min. Supernatant insulin content was measured by ELISA (Merck Millipore, Burlington, Mass.).

For data set [4], the system named is INS1 cells. Kind of data set: Mitotracker Green pulse-chase (mitochondrial clearance). Conditions: 25 uM, 18 h after MTG pulse. Here is the method:
FIGS. 8A-E show the effect of two hit compounds on mitophagy confirmed by other methods. […] Cells were imaged using a 63× Plan Neofluar objective and the Airyscan module of a Zeiss LSM880 confocal microscope. […] Data are normalized by DMSO. […] After 18 h, cells were imaged. As control, cells were loaded with MTG 30 min prior imaging—time “0” (100% MTG staining). Cells were imaged using a 40× lens of a Perkin Elmer Operetta high-content imaging system microscope (FIG. 8D). […] Each experiment was repeated three times. For mCherry-GFP-FIS1101-152 assay, 59-85 cells of each group were analyzed in each experiment and for MTG pulse-chase assay, 45 fields were analyzed in each experiment. Values of *p<0.05 vs. DMSO, #p<0.05 vs. “time 0”.
Mitotracker Green Fluorescence, Anion Radical Superoxide and Mitochondrial Membrane Potential. […] Results are expressed as the percentage of MTG fluorescence relative to MTG fluorescence of the “time 0” control. […] Integrated fluorescence of each field was analyzed in Image J after background subtraction and threshold (IsoData) application. Twenty-four fields of each condition were analyzed in each experiment.
A second fluorescence technique, Mitotracker Green (MTG) “pulse-and-chase” (FIG. 8 C-E), was utilized to confirm faster mitochondrial clearance upon treatment with SPB08007 and MWP00839. […]

`CC(=O)N/C(=C\c1sc2ccccc2c1C)C(=O)O` [SPB08007]: the “mitochondrial mass (mitotracker green fluorescence)” value in the data set on INS1 cells [1] was “reduction in fluorescence”. The “autophagy (LC3II, with or without bafilomycin)” value with INS1 cells [2] is “increase in autophagy”. The “viability (XTT)” value with INS1 cells [3] is given as “did not affect viability; also recorded: comparable to DMSO control”. In addition, the “insulin secretion fold (glucose stimulated/basal)” value in the data set with mouse islets was “higher secretion fold”. The basal insulin secretion result with mouse islets (2 mM glucose) was “significantly reduced”. In addition, the glucose-stimulated insulin secretion result in the data set with mouse islets (16 mM of glucose) was “maintaining the levels”. In addition, the “MTG intensity after pulse-chase” value with INS1 cells [4] was “lower MTG intensity compared to DMSO”.
